Values after ≈ are worked out from the molar mass of the structure shown. Positions of bridges follow the written chain, without caps; N, C: chain ends. Non-standard residues stand in square brackets, D forms with d. Residues, ends and D or L forms follow the SMILES beside them. *: point of attachment. X1 = CC[C@H](C)CCCCC(=O)*; Dab = NCC[C@H](N)C(=O)O
System: Pseudomonas aeruginosa
Assay: Antibacterial activity against Pseudomonas aeruginosa PAO1 assessed as inhibition of bacterial growth incubated for 24 hrs by broth microdilution method
Assay type: functional
Conditions: read-out: MIC100

MIC [µg/mL]	SMILES
64 (≈ 55.9 µM)	CCCCCCCC(=O)N[C@@H](CCN)C(=O)NCC(=O)N[C@@H](CCN)C(=O)N[C@H]1CCNC(=O)[C@H]([C@@H](C)O)NC(=O)[C@H](CCN)NC(=O)[C@H](CCN)NC(=O)[C@H](CC(C)C)NC(=O)[C@@H](Cc2ccccc2)NC(=O)[C@H](CCN)NC1=O
32 (≈ 23.1 µM)	CC(C)C[C@@H]1NC(=O)[C@@H](Cc2ccccc2)NC(=O)[C@H](CCN)NC(=O)[C@@H](NC(=O)[C@H](CCN)NC(=O)[C@@H](NC(=O)[C@H](CCN)NC(=O)CCCCCCCN(Cc2ccccn2)Cc2ccccn2)[C@@H](C)O)CCNC(=O)[C@H]([C@@H](C)O)NC(=O)[C@H](CCN)NC(=O)[C@H](CCN)NC1=O
2 (≈ 1.45 µM)	CC(C)CCCCC(=O)N[C@@H](CCN)C(=O)N[C@H](C(=O)N[C@@H](CCN)C(=O)N[C@H]1CCNC(=O)[C@H]([C@@H](C)OC(=O)[C@@H]2CCCN2)NC(=O)[C@H](CCN)NC(=O)[C@H](CCN)NC(=O)[C@H](CC(C)C)NC(=O)[C@@H](Cc2ccccc2)NC(=O)[C@H](CCN)NC1=O)[C@@H](C)OC(=O)[C@@H]1CCCN1
4 (≈ 2.82 µM)	CC(C)CCCCC(=O)N[C@@H](CCN)C(=O)N[C@H](C(=O)N[C@@H](CCN)C(=O)N[C@H]1CCNC(=O)[C@H]([C@@H](C)OC(=O)[C@@H](N)CC(=O)O)NC(=O)[C@H](CCN)NC(=O)[C@H](CCN)NC(=O)[C@H](CC(C)C)NC(=O)[C@@H](Cc2ccccc2)NC(=O)[C@H](CCN)NC1=O)[C@@H](C)OC(=O)[C@@H](N)CC(=O)O
128 (≈ 108 µM)	CC(C)CCCCC(=O)N[C@@H](CCN)C(=O)N[C@@H](CCN)C(=O)N[C@@H](CCN)C(=O)N[C@H]1CCNC(=O)[C@H]([C@@H](C)O)NC(=O)[C@H](CCN)NC(=O)[C@H](CCN)NC(=O)[C@H](CC(C)C)NC(=O)[C@@H](Cc2ccccc2)NC(=O)[C@H](CCN)NC1=O
2 (≈ 1.53 µM)	CC(C)CCCCC(=O)N[C@@H](CCN)C(=O)N[C@H](C(=O)N[C@@H](CCN)C(=O)N[C@H]1CCNC(=O)[C@H]([C@@H](C)O)NC(=O)[C@H](CCN)NC(=O)[C@H](CCN)NC(=O)[C@H](CC(C)C)NC(=O)[C@@H](Cc2ccccc2)NC(=O)[C@H](CCN)NC1=O)[C@@H](C)OC(=O)[C@@H](N)CC(=O)O
2 (≈ 1.54 µM)	CC[C@H](C)CCCCC(=O)N[C@@H](CCN)C(=O)N[C@H](C(=O)N[C@@H](CCN)C(=O)N[C@H]1CCNC(=O)[C@H]([C@@H](C)O)NC(=O)[C@H](CCN)NC(=O)[C@H](CCN)NC(=O)[C@H](CC(C)C)NC(=O)[C@@H](Cc2ccccc2)NC(=O)[C@H](CCN)NC1=O)[C@@H](C)OC(=O)[C@@H](N)C(C)C
2 (≈ 1.49 µM)	CC[C@H](C)CCCCC(=O)N[C@@H](CCN)C(=O)N[C@H](C(=O)N[C@@H](CCN)C(=O)N[C@H]1CCNC(=O)[C@H]([C@@H](C)O)NC(=O)[C@H](CCN)NC(=O)[C@H](CCN)NC(=O)[C@H](CC(C)C)NC(=O)[C@@H](Cc2ccccc2)NC(=O)[C@H](CCN)NC1=O)[C@@H](C)OC(=O)[C@@H](N)Cc1c[nH]cn1
2 (≈ 1.53 µM)	CC[C@H](C)CCCCC(=O)N[C@@H](CCN)C(=O)N[C@H](C(=O)N[C@@H](CCN)C(=O)N[C@H]1CCNC(=O)[C@H]([C@@H](C)O)NC(=O)[C@H](CCN)NC(=O)[C@H](CCN)NC(=O)[C@H](CC(C)C)NC(=O)[C@@H](Cc2ccccc2)NC(=O)[C@H](CCN)NC1=O)[C@@H](C)OC(=O)[C@@H](N)CS
8 (≈ 5.91 µM)	CC(NCC[C@H](NC(=O)[C@H](CCN)NC(=O)CCCCC(C)C)C(=O)N[C@@H](CCN)C(=O)N[C@H]1CCNC(=O)[C@H]([C@@H](C)O)NC(=O)[C@H](CCN)NC(=O)[C@H](CCN)NC(=O)[C@H](CC(C)C)NC(=O)[C@@H](Cc2ccccc2)NC(=O)[C@H](CCN)NC1=O)=C1C(=O)CC(C)(C)CC1=O
2 (≈ 1.54 µM)	CC[C@H](C)[C@H](N)C(=O)O[C@H](C)[C@H](NC(=O)[C@H](CCN)NC(=O)CCCCC(C)C)C(=O)N[C@@H](CCN)C(=O)N[C@H]1CCNC(=O)[C@H]([C@@H](C)O)NC(=O)[C@H](CCN)NC(=O)[C@H](CCN)NC(=O)[C@H](CC(C)C)NC(=O)[C@@H](Cc2ccccc2)NC(=O)[C@H](CCN)NC1=O

SMILES	MIC [µg/mL]
CC[C@H](C)CCCCC(=O)N[C@@H](CCN)C(=O)N[C@H](C(=O)N[C@@H](CCN)C(=O)N[C@H]1CCNC(=O)[C@H]([C@@H](C)O)NC(=O)[C@H](CCN)NC(=O)[C@H](CCN)NC(=O)[C@H](CC(C)C)NC(=O)[C@@H](Cc2ccccc2)NC(=O)[C@H](CCN)NC1=O)[C@@H](C)O (X1-[Dab]T[Dab][Dab][Dab][dF]L[Dab][Dab]T; lactam 4-C)	2 (≈ 1.66 µM)

— ChEMBL document CHEMBL4825673, “Total and Semisyntheses of Polymyxin Analogues with 2-Thr or 10-Thr Modifications to Decipher the Structure-Activity Relationship and Improve the Antibacterial Activity” (J Med Chem, 2021)
